From PubChem BioAssay AID2060620 (Molecular Pharmacology Branch, DTP, NCI, 2025)

Test system: 328373-195-R-J1-PDC complex spheroids, viability % test/control
Test: Anticancer human tumor 328373-195-R-J1-PDC patient-derived head and neck squamous carcinoma cell line growth inhibition [CLK]
Conditions: for IC50: curve of first compound; for viability, T/C: stronger effect = lower value; active = viability on the fitted dose curve at most 10% of control; inactive = the rest
Source text: A high-throughput screen of multi-cell type tumor spheroids was designed to identify active combinations of […] and targeted small molecules. Complex spheroids include a stromal component modeled by human endothelial cells (HUVEC) and fibroblasts modeled by human mesenchymal stem cells (MSCs). The concentration ranges selected for each drug and investigational agent were based upon clinically achievable concentrations if the clinical Cmax of the agent was known.
Compounds. The drugs and investigational agents: cirtuvivint (SM08502; NSC835563), CC-671 (NSC850746), vemurafenib (NSC761431), tapotoclax (NSC804041), sotorasib (NSC818433), adagrasib (NSC831453), MRTX-1133 (NSC836407), BAY2416964 (NSC825713), copanlisib (NSC816437), inavolisib (NSC800729), abemaciclib (NSC768073), osimertinib (NSC779217), entinostat (NSC756642), eltanexor (KPT-8602, NSC794443), venetoclax (NSC766270), ceralasertib (NSC777638), bortezomib (NSC756655), olaparib (NSC753686), talazoparib (NSC767125), alisertib (NSC759677), peposertib (NSC802822), gemcitabine (NSC613327), 5-fluorouracil (NSC19893), SN-38 (NSC673596), oxaliplatin (NSC266046), paclitaxel (NSC125973), and doxorubicin (NSC123127), were obtained from the National Cancer Institute (NCI) Developmental Therapeutics Program Chemical Repository. The FDA-approved anticancer drug set is available from the Developmental Therapeutics Program at https://dtp.cancer.gov/organization/dscb/obtaining/available plates.htm. […] The stock solutions were prepared in dimethyl sulfoxide (DMSO, Sigma-Aldrich, St. Louis, MO, cat. D2650), except for the platinum complexes which were prepared in saline (Quality Biological, Gaithersburg, MD, cat. 114-055-101), at 800-fold the tested concentration and stored at -70 degrees C prior to their use. All drugs and investigational agents were tested over a range starting from a high concentration at or near the clinical Cmax and decreasing in half-log increments. If the clinical Cmax for an agent had not been determined, the highest concentration tested was 10 microM.
Cell Culture. All cells were maintained in an incubator at 37 degrees C and 5% CO2 with 95% humidity. The PDC lines were cultured according to standard operating procedures established by the NCI PDMR. Briefly, all PDCs were thawed and cultured in Matrigel-coated flasks prepared with a working solution of 1X Ham's F-12 nutrient mix, without supplementation (Invitrogen, Waltham, MA, cat. 11765054), 100 U/mL penicillin-streptomycin (Invitrogen, cat. 15140122), and 2.5% Matrigel (Corning Inc., Corning, NY, cat. 354248) for the first three passages. The 947758-054-R-J2-PDC line was cultured in 6B/Colon 1A media, which includes advanced DMEM/F-12 (Thermo Fisher Scientific, cat. 12634028), 10 mM HEPES (Thermo Fisher Scientific, cat. 15630080), 1X GlutaMAX supplement (Thermo Fisher Scientific, cat. 35050061), 0.1 mg/mL primocin (InvivoGen, cat. ant-pm-2), 10% defined fetal bovine serum, heat inactivated (HyClone Laboratories Inc., cat. SH30070.03HI), 1.25 mM N-Acetyl-L-cysteine (Sigma-Aldrich, cat. A9165), 10 mM nicotinamide (Sigma-Aldrich, cat. N0636), 1X B-27 supplement (Thermo Fisher Scientific, cat. 17504044), 1X N-2 supplement (Thermo Fisher Scientific, cat. 17502048), and 10 microM Y-27632 dihydrochloride (Tocris Bioscience, cat. 1254). The 876862-298-R-J1-PDC was cultured in 6E media, which includes all 6B/Colon 1A media components plus 50% L-WRN conditioned media (ATCC, cat. CRL-3276), 50 ng/mL recombinant human EGF recombinant protein (hEGF; Thermo Fisher Scientific, cat. PHG0311), 10 ng/mL recombinant human fibroblast growth factor 10 (hGFG-10; PeproTech, cat. 100-26), 1 ng/mL recombinant human fibroblast growth factor 2 (hFGF-2; PeproTech, cat. 100-18B), and 1 µM prostaglandin E2 (PGE2; Tocris, cat. 2296). The 227483-062-R1-J1-PDC line was cultured in Panc media, containing all 6E components except hFGF-2, with the addition of 500 nM SB-431542 (Selleckchem, cat. S1067) and 10 nM gastrin (Tocris, cat. 3006). […]

[1] = second compound 0.0316 µM, first compound 0.0316 µM
[2] = second compound 0.0316 µM, first compound 0.1 µM
[3] = second compound 0.0316 µM, first compound 0.316 µM
[4] = second compound 0.0316 µM, first compound 1 µM
[5] = second compound 0.0316 µM, first compound 3.16 µM
[6] = second compound 0.0316 µM, first compound 10 µM
[7] = second compound 0.1 µM, first compound 0.0316 µM
[8] = second compound 0.1 µM, first compound 0.1 µM
[9] = second compound 0.1 µM, first compound 0.316 µM
[10] = second compound 0.1 µM, first compound 1 µM
[11] = second compound 0.1 µM, first compound 3.16 µM
[12] = second compound 0.1 µM, first compound 10 µM
[13] = second compound 0.316 µM, first compound 0.0316 µM
[14] = second compound 0.316 µM, first compound 0.1 µM
[15] = second compound 0.316 µM, first compound 0.316 µM
[16] = second compound 0.316 µM, first compound 1 µM
[17] = second compound 0.316 µM, first compound 3.16 µM
[18] = second compound 0.316 µM, first compound 10 µM
[19] = second compound 1 µM, first compound 0.0316 µM
[20] = second compound 1 µM, first compound 0.1 µM
[21] = second compound 1 µM, first compound 0.316 µM
[22] = second compound 1 µM, first compound 1 µM
[23] = second compound 1 µM, first compound 3.16 µM
[24] = second compound 1 µM, first compound 10 µM
[25] = second compound 3.16 µM, first compound 0.0316 µM
[26] = second compound 3.16 µM, first compound 0.1 µM
[27] = second compound 3.16 µM, first compound 0.316 µM
[28] = second compound 3.16 µM, first compound 1 µM
[29] = second compound 3.16 µM, first compound 3.16 µM
[30] = second compound 3.16 µM, first compound 10 µM
[31] = second compound 10 µM, first compound 0.0316 µM
[32] = second compound 10 µM, first compound 0.1 µM
[33] = second compound 10 µM, first compound 0.316 µM
[34] = second compound 10 µM, first compound 1 µM
[35] = second compound 10 µM, first compound 3.16 µM
[36] = second compound 10 µM, first compound 10 µM
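Also: spheroids exposed to the agents for 7 days.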

C=C(F)C(=O)N1CCN(c2nc(OCC3CCCN3C)nc3c2CCN(c2cccc4cccc(Cl)c24)C3)CC1CC#N (centres undefined) + CN1CCN(c2cc(C(=O)Nc3cc4cc(-c5cnn(C)c5)ccc4cn3)ccn2)CC1
inactive: viability, T/C [1] 103% | viability, T/C [2] 99.5% | viability, T/C [3] 96.9% | viability, T/C [4] 91.5% | viability, T/C [5] 63% | viability, T/C [7] 80.5% | viability, T/C [8] 90.8% | viability, T/C [9] 81.7% | viability, T/C [10] 81.6% | viability, T/C [11] 55.7% | viability, T/C [13] 35.2% | viability, T/C [14] 38.1% | viability, T/C [15] 34.7% | viability, T/C [16] 34.3% | viability, T/C [17] 22.8%
active: viability, T/C [6] 3.75% | viability, T/C [12] 1.67% | viability, T/C [18] 3.9% | viability, T/C [19] 0.25% | viability, T/C [20] 4.59% | viability, T/C [21] 1.43% | viability, T/C [22] 0.34% | viability, T/C [23] 1.34% | viability, T/C [24] 0.52% | viability, T/C [25] 2.92% | viability, T/C [26] 0.86% | viability, T/C [27] 1.39% | viability, T/C [28] 1.82% | viability, T/C [29] 5.78% | viability, T/C [30] 0.76% | viability, T/C [31] 4.95% | viability, T/C [32] 2.58% | viability, T/C [33] 0.33% | viability, T/C [34] 0.79% | viability, T/C [35] 1.9% | viability, T/C [36] 0.96%
3570 nM: IC50 (second compound 0.1 µM)
< 31.6 nM: IC50 (second compound 0.316 µM) | IC50 (second compound 1 µM) | IC50 (second compound 3.16 µM) | IC50 (second compound 10 µM)
4080 nM: IC50 (second compound 0.0316 µM)

CC(CO)NC(=O)c1cc(-c2ccc(Cl)cc2)nn(-c2cnn(C)c2)c1=O (centres undefined) + CN1CCN(c2cc(C(=O)Nc3cc4cc(-c5cnn(C)c5)ccc4cn3)ccn2)CC1
> 10000 nM: IC50 (second compound 0.0316 µM) | IC50 (second compound 0.1 µM)
active: viability, T/C [19] 0.23% | viability, T/C [20] 0.27% | viability, T/C [21] 1.91% | viability, T/C [22] 1.81% | viability, T/C [23] 1.3% | viability, T/C [24] 2.16% | viability, T/C [25] 2.73% | viability, T/C [26] 1.98% | viability, T/C [27] 1.71% | viability, T/C [28] 0.57% | viability, T/C [29] 3.9% | viability, T/C [30] 2.11% | viability, T/C [31] 0.74% | viability, T/C [32] 0.62% | viability, T/C [33] 0.43% | viability, T/C [34] 1% | viability, T/C [35] 0.24% | viability, T/C [36] 3.1%
inactive: viability, T/C [1] 108% | viability, T/C [2] 99.5% | viability, T/C [3] 114% | viability, T/C [4] 106% | viability, T/C [5] 105% | viability, T/C [6] 97.6% | viability, T/C [7] 86.1% | viability, T/C [8] 92.1% | viability, T/C [9] 94.7% | viability, T/C [10] 98% | viability, T/C [11] 92.6% | viability, T/C [12] 82.6% | viability, T/C [13] 32.2% | viability, T/C [14] 39% | viability, T/C [15] 35.2% | viability, T/C [16] 39.5% | viability, T/C [17] 38% | viability, T/C [18] 33.9%
< 31.6 nM: IC50 (second compound 0.316 µM) | IC50 (second compound 1 µM) | IC50 (second compound 3.16 µM) | IC50 (second compound 10 µM)
